Laboratory results reported in US11571413B2, “Nicotinamide riboside treatments of domesticated meat animals” (Kansas State University Research Foundation, priority 2017, dated 2023).
Marks after values point to notes of the source that are not given here.

Experiments:
fertilized broiler eggs = assay: In ovo NR injection at 11 days of incubation: chick weight and Pectoralis major measurements (Example 1); assay type: in vivo, chicken
Description: At 11-days of incubation, 60 fertilized broiler eggs were randomly assigned to completely randomized design with a 2×2 factorial arrangement. Factor 1 comprised treatment, with eggs injected with 100 μl of 0.9% sterile saline solution (NRNeg) or 250 mM NR in sterile saline (NRPos). Factor 2 comprised injection location, with treatments injected into the yolk or albumen. Eggs were incubated at 37±3° C. and a relative humidity of 40±2% for 7 days. Humidity was increased to 60±2% at the same temperature for the final 3 days of incubation. Twenty-four hours after hatching, chicks were euthanized by exposure to CO2 and decapitation. Measurements including chick weight and left Pectoralis major weight, length, and depth were taken for analysis.

growing pigs = assay: Longissimus lumborum NAD+ content (Example III); assay type: in vivo, pig
Description: Nine growing pigs were blocked by bodyweight (BW) and placed in metabolism crates. After a 3-day acclimation period, pigs within each BW block were randomly assigned to a treatment (n=3 pigs/treatment). Treatments comprised pigs supplemented 0, 15, or 30 mg/kg BW NR for 7 days. Pigs were allowed ad libitum access to a standard growing diet and water. Treatments were administered daily at 8 a.m. by mixing NR in 20 mL of Karo® dark syrup and orally drenching the pigs. On day 0 and 3 of the trial, muscle biopsies of the LL were taken for NAD+ analysis using standard procedures. At day 7, pigs were transported to the Kansas State University Meats Laboratory and euthanized by a captive penetrating bolt to the brain, followed by exsanguination. Following harvest procedures, 3 g of the LL were collected for NAD+ analysis. Twenty-four hours after harvest, the whole LL not sampled at harvest was removed from the carcass and aged 10 days. After aging, the LL was cut into 6 chops for retail color stability analysis, including 6-day surface oxy- and metmyoglobin percentage, 6-day objective and subjective color panel evaluation, and day 4 and 6 metmyoglobin reducing ability (MRA).

finished market barrows = assay: Semitendinosus muscle NAD+ content by HPLC (Example V); assay type: in vivo, pig; conditions: 30 mg/kg BW oral daily, 10 days
Description: Fourteen days prior to harvest, 20 finished market barrows (initial body weight 268 pounds) were randomly assigned to 1 of 2 treatments: 0 or 30 mg/kg body weight of nicotinamide riboside, both orally administered daily in 20 ml of Karo® Syrup. Ten days prior to harvest, pigs were restrained via a snare and treatments were administered. On day 7, barrows were subjected to a performance test where they were walked around a track at 0.88 m/s until subjective fatigue was achieved. Three days following the performance test, barrows were harvested and a portion of the semitendinosus muscle was collected within 45 minutes. These samples were analyzed for NAD+ content via HPLC methodology.

[1] = test system: Fertilized Cobb 500 broiler eggs; assay: Pectoralis major succinate dehydrogenase staining intensity (second Example VI); assay type: in vivo, chicken; conditions: 250, 500 or 1,000 mM NR; hatched chicks
Description: The methods of Noel et al. (2016) were followed for succinate dehydrogenase (SDH) staining. Slides were incubated at 37° C. for 1 h in a prewarmed incubation solution containing nitro blue tetrazolium solution, phosphate buffer, and sodium succinate solution. After washing in ultrapure water 3 times for 1 min each, 5 μL of 9:1 glycerol in PBS was placed on each cryosection and they were coverslipped for imaging. All cryosections were imaged at 200× magnification using a Nikon Eclipse TI-U inverted microscope (Nikon Instruments Inc., Melville, N.Y.). Immunohistochemistry photomicrographs were collected with a DS-QiMC digital camera (Nikon Instruments Inc.) and SDH cryosections were collected with a Nikon DS-Fil color digital camera (Nikon Instruments Inc.) White light intensity was kept constant for SDH photomicrographs. All photomicrograph collection and image analyses were conducted using NIS Elements Basic Software (Nikon Instruments Inc.). Cross-sectional area (CSA) of a minimum of 1,000 muscle fibers per chick was determined as the area within the dystrophin border. The number of satellite cell was determined as nuclei co-staining for Pax 7 and Hoechst dye located at the periphery of muscle fiber. A minimum of 50 muscle fiber bundles per chick were analyzed for SDH mean intensity using the same software. […]

[2] = test system: Fertilized Cobb 500 broiler eggs; assay: Pectoralis major NAD+ quantification, NAD/NADH assay kit (second Example VI); assay type: in vivo, chicken; conditions: hatched chicks
Description: Nicotinamide adenine dinucleotide content of the right PMM was quantified using a commercial NAD/NADH assay kit (Abnova, Taipei, Taiwan). Twenty-milligram of PMM tissue was homogenized in a propriety NAD extraction buffer, heated at 60° C. for 5 min, and propriety assay and NADH buffers were added. Samples were centrifuged at 14,000 rpm for 5 min and the supernatant was used for analysis. Standards, samples, and working reagent [propriety assay buffer, enzymes, lactate, and 3-(4,5-dimethylthiazol-2-yl)-2,5-diphenyltetrazolium bromide] were loaded onto 96-well plates and absorbance was read at 565 nm at 0 and 15 min. The change in absorbance was used to calculate amount of NAD+.

[3] = 100 μl 250 mM NR into yolk at 11 d, chicks 24 h after hatching

## NC(=O)c1ccc[n+]([C@@H]2O[C@H](CO)[C@@H](O)[C@H]2O)c1 [Nicotinamide riboside, nicotinamide riboside]
Fertilized broiler eggs; 100 μl 250 mM NR at 11 d, treatment main effect (yolk and albumen)
  Pectoralis major depth vs NRNeg: thicker muscles
Fertilized broiler eggs; 100 μl 250 mM NR into albumen at 11 d, chicks 24 h after hatching
  Chick weight and Pectoralis major weight and length vs NRNeg: no differences
Fertilized broiler eggs; [3]
  Chick weight vs NRNeg: tended to weigh more
  Pectoralis major length vs NRNeg: longer
  Pectoralis major weight vs NRNeg: weighed more
Growing pigs; 15 mg/kg
  Day 3 NAD+ change, percent change: 28.55^b,x Percent
  Day 3 NAD+ change, total: 2.10^b pMol/g tissue
  Day 7 NAD+ change, percent change: 35.29^b,x Percent
  Day 7 NAD+ change, total: 2.72^b pMol/g tissue
Growing pigs; 15 mg/kg group, Day 0 (before supplementation)
  NAD+: 7.70 pMol/g tissue
Growing pigs; 15 mg/kg, Day 7
  NAD+: 10.42 pMol/g tissue
Growing pigs; 15 mg/kg, middle column group (Day 3, head not given)
  NAD+: 9.80 pMol/g tissue
Growing pigs; 30 mg/kg
  Day 3 NAD+ change, percent change: 6.43^a,b,y Percent
  Day 3 NAD+ change, total: 0.71^a,b,y pMol/g tissue
  Day 7 NAD+ change, percent change: 10.92^a,b,y Percent
  Day 7 NAD+ change, total: 0.93^a,b,y pMol/g tissue
Growing pigs; 30 mg/kg group, Day 0 (before supplementation)
  NAD+: 8.60 pMol/g tissue
Growing pigs; 30 mg/kg, Day 7
  NAD+: 9.53 pMol/g tissue
Growing pigs; 30 mg/kg, middle column group (Day 3, head not given)
  NAD+: 9.31 pMol/g tissue
Finished market barrows
  Increase of NAD+ in the semitendinosus muscle (tendency, P=0.09): 62%
[1]
  SDH staining intensity: no treatment effect
[2]; 1,000 mM NR
  NAD+ content of PMM vs the other 3 treatment groups: more NAD^+
[2]; 250 and 500 mM NR
  NAD+ content of PMM among 0, 250 and 500 mM groups: did not differ
